Data from article PMC8537501 (2021).
Each block holds one molecule with its values, some of them ahead of it.

Experiments:
[1] = system: CPG-tel26 (DNA, G4) TTAGGGTTAGGGTTAGGGTTAGGGTT; assay: G4-CPG affinity chromatography; conditions: 50 mM KCl; 10% DMSO, 10% ethanol; 600 μM ligand
[2] = system: CPG-c-myc (DNA, G4) TGGGGAGGGTGGGGAGGGTGGGGAAGGTGGGGA; assay: G4-CPG affinity chromatography; conditions: 50 mM KCl; 10% DMSO, 10% ethanol; 600 μM ligand
[3] = system: CPG-ds27 (DNA, hairpin) CGCGAATTCGCGTTTCGCGAATTCGCG; assay: G4-CPG affinity chromatography; conditions: 50 mM KCl; 10% DMSO, 10% ethanol; 600 μM ligand
[4] = system: tel26 (DNA, G4) TTAGGGTTAGGGTTAGGGTTAGGGTT; assay: fluorescence titration; conditions: 5 mM KCl
[5] = system: ds27 (DNA, hairpin) CGCGAATTCGCGTTTCGCGAATTCGCG; assay: fluorescence titration; conditions: 5 mM KCl
[6] = system: c-myc (DNA, G4) TGGGGAGGGTGGGGAGGGTGGGGAAGGTGGGGA; assay: fluorescence titration; conditions: 5 mM KCl
[7] = system: ds27 (DNA, hairpin) CGCGAATTCGCGTTTCGCGAATTCGCG; assay: CD melting, 251 nm; conditions: 5 mM KCl; 5 mM phosphate, 5% DMSO, pH 7; 2 μM DNA, 20 μM ligand
[8] = system: tel26 (DNA, G4) TTAGGGTTAGGGTTAGGGTTAGGGTT; assay: CD melting, 290 nm; conditions: 5 mM KCl; 5 mM phosphate, 5% DMSO, pH 7; 2 μM DNA, 20 μM ligand
[9] = system: c-myc (DNA, G4) TGGGGAGGGTGGGGAGGGTGGGGAAGGTGGGGA; assay: CD melting, 262 nm; conditions: 0.5 mM KCl; 0.5 mM phosphate, 5% DMSO, pH 7; 2 μM DNA, 20 μM ligand
[10] = 5 mM phosphate, 5% DMSO, pH 7, 20 °C, 2 μM ligand, independent equivalent-sites model

Structure (SMILES): CC(C)=CCC1=C(O)c2c(cc3cc(C)cc(O)c3c2O)C(CC=C(C)C)(CC=C(C)C)C1=O
binding [1]: weak | binding [2]: weak

Structure (SMILES): CC(C)=CCc1c(C)cc2cc3c(c(O)c2c1O)C(=O)C=C(O)C3(CC=C(C)C)CC=C(CO)CO (stereo not shown)
binding [1]: weak | binding [2]: weak

Structure (SMILES): CC[C@H]1CN2CCc3cc(OC)c(OC)cc3[C@@H]2C[C@@H]1C[C@H]1NCCc2cc(OC)c(OC)cc21
binding [1]: yes | binding [2]: yes | binding [3]: yes

Structure (SMILES): CN1Cc2c(ccc3c2OCO3)[C@@H]2[C@H]1c1cc3c(cc1C[C@@H]2O)OCO3
binding ([4]; 5 mM phosphate, 5% DMSO, pH 7, 20 °C, 2 μM ligand, quenching, not fitted): yes | binding ([5]; 5 mM phosphate, 5% DMSO, pH 7, 20 °C, 2 μM ligand, DNA up to 10 μM): no | binding ([6]; 5 mM phosphate, 5% DMSO, pH 7, 20 °C, 2 μM ligand, enhancement then quenching, not fitted): yes | ΔTm [7]: −1 °C | ΔTm [8]: +4 °C | ΔTm [9]: +13 °C

Structure (SMILES): COc1ccc2c(c1O)-c1c3c(cc4c1[C@H](C2)N(C)CC4)OCO3
Kb [4, 10]: 1.0 (±0.4) × 10^6 M^-1 | Kb [5, 10]: 1.2 (±0.6) × 10^6 M^-1 | Kb [6, 10]: 1.1 (±0.4) × 10^6 M^-1 | ΔTm [9]: +9 °C

The remaining lines, values ahead:

binding [1]: weak
Structure (SMILES): CC(C)(O)CC[C@@H](O)[C@](C)(O)[C@H]1CC[C@@]2(O)C3=CC(=O)[C@@H]4C[C@@H](O)[C@@H](O)C[C@]4(C)[C@H]3CC[C@]12C

binding [1]: yes | binding [2]: yes | binding [3]: yes
Structure (SMILES): CC1=C2C(=O)[C@H]3[C@@H](CC=C4C[C@@H](O)CC[C@@]43C)[C@@H]2CC[C@]12O[C@@H]1C[C@H](C)CN[C@H]1[C@H]2C

Kb [4]: 4.1 (±0.8) × 10^5 M^-1 | Kb [5]: 3.7 (±0.7) × 10^5 M^-1 | Kb [6]: 3.9 (±0.7) × 10^5 M^-1 | ΔTm [7]: 0 °C | ΔTm [8]: +2 °C
Structure (SMILES): CC[C@H]1C[C@@H]2C[C@H]3c4[nH]c5ccc(OC)cc5c4CCN(C2)[C@@H]13

binding [1]: yes | binding [2]: yes | ΔTm [7]: −3 °C | ΔTm [8]: 0 °C | ΔTm [9]: +5 °C
Structure (SMILES): CN1CC[C@]23C(=O)C[C@H]4C(=CCO[C@H]5CC(=O)N(c6c(O)cccc62)[C@H]3[C@H]54)C1

binding [2]: weak
Structure (SMILES): COC(=O)[C@@H]1[C@H]2C[C@H]3c4[nH]c5ccccc5c4CCN3C[C@@H]2CC[C@@H]1O

binding [1]: weak | binding [2]: weak
Structure (SMILES): COc1cc2cc3c(c(O)c2c2c1C=CC(C)(C)O2)C(=O)CC(C)(O)C3 (stereo not shown)
